Assay results: EP4744648A1, “LIPOPEPTIDE-CONTAINING FAT-DISSOLVING PRODUCT, AND PREPARATION METHOD THEREFOR AND USE THEREOF” (Bloomage Biotechnology Corporation Limited, priority 2023, dated 2024)
Read-outs that look alike come from different tables or passages of the source.

How the values were obtained:
[1] = tested on: Kunming mice
Description: 6-week-old Kunming mice (weighing 20-30 g) were used as the model. A total of 200 µL of different drugs was injected subcutaneously at multiple sites with multiple needles into the left inguinal region of each mouse. The experimental groups were set as follows: • 1) Negative control group (n = 3): 200 µL of sterile normal saline; • 2) 1% sodium deoxycholate group (n = 3): 200 µL of 1% sodium deoxycholate normal saline solution; • 3) 2% sodium deoxycholate group (n = 3): 200 µL of 2% sodium deoxycholate normal saline solution; • 4) 0.5% surfactin HXRZ group (n = 3): 200 µL of 0.5% surfactin HXRZ normal saline solution; • 5) 1% surfactin HXRZ group (n = 3): 200 µL of 1% surfactin HXRZ normal saline solution; • 6) 2% surfactin HXRZ group (n = 3): 200 µL of 2% surfactin HXRZ normal saline solution;
Administration was performed once every 7 days. Ulceration at the administration site of each mouse was observed throughout the administration period. On day 21 of the experiment, all mice were sacrificed and dissected.

[2] = Surface tension at serial dilutions (CMC value determination), automatic interfacial tensiometer; assay type: physicochemical
Description: A 0.1% surfactin HXRZ solution and a sodium deoxycholate solution were separately prepared using purified water, followed by serial dilution to obtain different gradient concentrations. The surface tensions at different concentrations were determined respectively via a JZ-200A automatic interfacial tensiometer. Table 1 CMC value determination results

[3] = tested on: Kunming mice; details: for Adipocyte density (n/mm^2): day 42, M±SEM
Description: In this example, 6-week-old Kunming mice (20-30 g) were used as the model. A total of 200 µL of different drugs was injected subcutaneously at multiple sites with multiple needles into the left inguinal region of each mouse. The experimental groups were set as follows. • 1) Negative control group (n = 9): 200 µL of sterile normal saline; • 2) Sodium deoxycholate group (n = 9): 200 µL of 1% sodium deoxycholate sterile normal saline solution; and • 3) Surfactin HXRZ group (n = 9): 200 µL of 1% surfactin HXRZ sterile normal saline solution.
On day 42 of the experiment, the mice were sacrificed and dissected. The left inguinal adipose tissue was harvested, fixed immediately in adipose tissue fixative and then embedded in paraffin. […] The adipocyte density was then calculated.
Statistical analysis was performed by using ulceration as an indicator of severe local inflammation and subcutaneous nodules and induration as indicators of mild local inflammation.

[4] = tested on: transgenic obese (ob/ob) mice; details: for degradation of adipose tissue (H-E sections, FIG. 6): Example 5, 200 µL, one mouse
Description: 6-week-old transgenic obese (ob/ob) mice were used as the animal model. Different drugs were injected into the adipose pads of the left buttock. The mice were totally divided into three groups with 7-10 mice per group, as specified below. • 1) Negative control group: injected with 200 µL of sterile normal saline; • 2) 1% sodium deoxycholate group: injected with 200 µL of sterile normal saline solution containing 1% sodium deoxycholate; • 3) 0.1% surfactin HXRZ group: injected with 200 µL of sterile normal saline solution containing 0.1% surfactin HXRZ.
The day of the first administration was defined as Day 1 of the experiment. Additional administrations were performed on Day 3 and Day 5, respectively. The general condition and administration sites of the mice were observed regularly throughout the experiment. On Day 21 of the experiment, the mice were sacrificed and dissected. The adipose tissue of the left buttock was isolated, fixed immediately in adipose tissue fixative, and then embedded in paraffin. The adipose tissue was stained by hematoxylin and eosin staining for pathological examination, followed by observation and analysis under an optical microscope.
Specifically, 6-week-old transgenic obese (ob/ob) mice were used as the animal model, with one mouse per group. 200 µL each of 0.5% and 1% surfactin HXRZ normal saline solutions (test samples) were injected into the adipose pads of the left buttock, respectively. The day of the first administration was defined as Day 1 of the experiment. Additional administrations were performed on Day 3 and Day 5, respectively. The general condition and administration sites of the mice were observed regularly throughout the experiment. On Day 21 of the experiment, the mice were sacrificed and dissected. The adipose tissue of the left buttock of the mice was isolated, fixed immediately in adipose tissue fixative, and then embedded in paraffin. The adipose tissue was stained by hematoxylin and eosin staining for pathological examination, followed by observation and analysis under an optical microscope.

[5] = tested on: Mouse adipocyte cell line 3T3-F442A; assay: In vitro cytotoxicity test: relative growth rate of cells by CCK-8; assay type: cell-based; details: for relative growth rate: X±SD
Description: Mouse adipocyte cell line 3T3-F442A in the logarithmic growth phase was seeded into a 96-well plate at a density of 1×10^5 cells/mL, with 100 µL per well. The culture medium consisted of a basal culture medium supplemented with 10% fetal bovine serum. The seeded cells were incubated conventionally in a carbon dioxide incubator at 37°C and 5% CO2 for 24 h.
The solution was freshly prepared before use.
After routine incubation for 24 h, the old culture medium was discarded, and then 100 µL of sample solution was added to replace it in the experimental group. An equal volume of serum-free culture medium was added to the normal control group. Each concentration was set up with at least three replicate wells.
After another incubation for 24 h, the relative growth rate of cells was detected by CCK-8. The culture medium was discarded, 100 µL of CCK-8 diluted 10-fold with the serum-free medium was added to each well. The plate was incubated in a cell incubator for another 2 h. The absorbance was determined using a microplate reader at a wavelength of 450 nm. The relative growth rate (RGR) is a ratio of the absorbance of the experimental group to the absorbance of the normal control group.
3T3-F442A mouse adipocytes in the logarithmic growth phase were seeded into a 96-well plate at a density of 1 × 10^5 cells/mL, with 100 µL per well. After incubation for 24 h, the culture medium was replaced with 100 µL of culture medium containing different concentrations of samples. An equal volume of serum-free culture medium was added to the blank control group, and the incubation was continued for another 24 h. The relative growth rate of cells was determined by CCK-8. The blank control was set as 100%, the relative growth rate and half inhibitory concentration of each group were calculated.

[6] = tested on: Female Kunming mice; assay: Animal experiment comparing surfactin-C14 and surfactin-C15: subcutaneous injection in right inguinal region, four administrations; details: for Mean adipocyte area (x±SEM, mm^2) / Mean adipocyte density (x±SEM, n/mm^2): H-E sections
Description: Female Kunming mice (aged 7-8 weeks, weighing 25.55-33.76 g) were taken, ranked in ascending order of body weight, and divided into groups of 7-8 mice using a Latin method. The tails of mice in each cage were marked and distinguished with an oil-based permanent marker.
Based on the injection dose of the positive drug reported in the literature, the subcutaneous injection dose for this test was determined to be 10 mg/mL at a volume of 200 µL. Subcutaneous injection was performed using a four-needle mesotherapy tip (34 G, 1.5 mm long, inner diameter 0.6 mm). Administration was performed sequentially from top to bottom along the right inguinal region. Administration was performed once every 14 days for a total of four administrations.
During the administration period, food intake, water consumption and general activity of all experimental animals in each group were observed daily under identical feeding conditions and housing environments. Daily observation was performed on each mouse to check for ulceration, induration and other lesions at the administration site. 14 days after the second administration, two mice from each group were sacrificed and dissected. All the remaining mice were sacrificed and dissected 14 days after the fourth administration.
In this example, changes in adipose tissue at the administration sites of experimental mice were statistically analyzed. Specifically, the adipose tissue was excised from the inguinal region on the inoculated side (right side), weighed and recorded. The adipose tissue-to-body weight percentage of the inoculated side for each mouse was then calculated using the formula: [(weight of adipose tissue on the inoculated side/body weight of the mouse) × 100%].
Further statistical analysis was performed on adipocyte density and adipocyte area. The adipose tissue from the inoculated side was immersed in adipose tissue fixative and sent for hematoxylin-eosin (H-E) staining. After imaging was completed, all measurements were standardized in millimeters. The area of adipose tissue in each image was measured, and the number of adipocytes in each image was counted. The area of a single adipocyte was calculated as: adipocyte area = total adipose tissue area/adipocyte number; adipocyte density = adipocyte number/total adipose tissue area.

[7] = Example 8, 0.005 mg/mL, 24 h, 3T3-F442A
[8] = Example 8, 0.01 mg/mL, 24 h, 3T3-F442A
[9] = Example 8, 0.02 mg/mL, 24 h, 3T3-F442A
[10] = Example 8, 0.04 mg/mL, 24 h, 3T3-F442A
[11] = Example 8, 0.08 mg/mL, 24 h, 3T3-F442A
[12] = 1 mg/mL (low-dose), four administrations
[13] = 5 mg/mL (medium-dose), four administrations
[14] = 10 mg/mL, four administrations once every 14 days, right inguinal

## surfactin [Surfactin HXRZ]
[1]; 0.5 %, treated side vs untreated side
  degradation of inguinal adipose tissue at the administration sites (dissection, FIG. 9): a certain degree of degradation
[1]; mouse, in vivo
  degree of ulceration at the administration sites compared with sodium deoxycholate: milder than that in the 2% sodium deoxycholate group
  degree of ulceration compared with sodium deoxycholate: milder than that in the 1% sodium deoxycholate group
  healing of ulceration: healed completely
  healing of ulcers: failed to heal
[1]; mouse, in vivo, sc
  ulceration at the injection sites: no ulceration occurred at the injection sites
[2]; solution concentration 0.00078125 % in purified water
  Surface tension value: 39.08 mN/m
[2]; solution concentration 0.0015625 % in purified water
  Surface tension value: 38.38 mN/m
[2]; solution concentration 0.003125 % in purified water
  Surface tension value: 37.64 mN/m
[2]; solution concentration 0.00625 % in purified water
  Surface tension value: 37.16 mN/m
[2]; solution concentration 0.0125 % in purified water
  Surface tension value: 36.28 mN/m
[2]; solution concentration 0.025 % in purified water
  Surface tension value: 35.64 mN/m
[2]; solution concentration 0.05 % in purified water
  Surface tension value: 33.43 mN/m
[2]; solution concentration 0.05 % in purified water, listed as surfactin HXRZ
  Surface tension value: 33 mN/m
[2]; solution concentration 0.1 % in purified water
  Surface tension value: 33.69 mN/m
[3]; 1 %, 200 µL s.c. left inguinal, once every 14 days, day 42, n = 9
  Adipose tissue weight: 0.2007 ± 0.0365 g
[3]; 1 %, 200 µL s.c.
  Adipocyte density (n/mm^2): 676.94±51.326 n/mm^2
[3]; 1 %, 200 µL s.c., listed as surfactin HXRZ
  Adipocyte density (n/mm^2): 676.94±51.326 n/mm^2
[3]; 1 %, 200 µL s.c., day 42, treated-side inguinal adipose weight/body weight × 100%
  Fat index (%): 0.50±0.10 %
[3]; mouse, in vivo
  Ulceration: 0
  ulceration at the administration sites over the administration cycle: no ulceration occurred at the administration sites
[4]; Example 4, 0.1 %, 200 µL in normal saline, left buttock, Days 1, 3, 5, Day 21
  degradation of adipose tissue at the administration sites (H-E sections, FIG. 5): induced the degradation of adipose tissue at the administration sites
[4]; 0.5 %, left buttock, Days 1, 3, 5, Day 21
  degradation of adipose tissue (H-E sections, FIG. 6): induced the degradation of adipose tissue in mice
[4]; 1 %, left buttock, Days 1, 3, 5, Day 21
  degradation of adipose tissue (H-E sections, FIG. 6): induced the degradation of adipose tissue in mice
[4]; mouse, in vivo
  induration / ulceration at the administration sites: No such phenomena were observed
[5]; 0.08 mg/mL
  treatment time at which adipocytes were completely lysed: 24 h
[5]; 0.08 mg/mL, 24 h
  cell morphology of adipocytes (inverted microscope, FIG. 4): nearly all cells died
[5]; 3T3-F442A adipocytes, 24 h, calculated from Table 2 curves
  half maximal inhibitory concentrations IC50: 0.0271 mg/mL
[5]; Example 2, 0.005 mg/mL, 24 h, 3T3-F442A
  Relative growth rate (%): 101.2±15.71%
[5]; Example 2, 0.01 mg/mL, 24 h, 3T3-F442A
  Relative growth rate (%): 90.23±4.30%
[5]; Example 2, 0.02 mg/mL, 24 h, 3T3-F442A
  Relative growth rate (%): 67.56±3.81%
[5]; Example 2, 0.04 mg/mL, 24 h, 3T3-F442A
  Relative growth rate (%): 19.34±1.43%
[5]; Example 2, 0.08 mg/mL, 24 h, 3T3-F442A
  Relative growth rate (%): 10.74±0.51%
[5]; Example 3, 0.02 mg/mL, 0.5 h
  Relative growth rate (%): 75.21±4.86%
[5]; Example 3, 0.02 mg/mL, 4 h
  Relative growth rate (%): 61.07±5.11%
[5]; Example 3, 0.02 mg/mL, 24 h
  Relative growth rate (%): 67.56±0.09%
[5]; Example 3, 0.04 mg/mL, 0.5 h
  Relative growth rate (%): 59.48±3.47%
[5]; Example 3, 0.04 mg/mL, 4 h
  Relative growth rate (%): 37.95±1.99%
[5]; Example 3, 0.04 mg/mL, 24 h
  Relative growth rate (%): 19.34±0.03%
[5]; Example 3, 0.08 mg/mL, 0.5 h
  Relative growth rate (%): 32.81±6.73%
[5]; Example 3, 0.08 mg/mL, 4 h
  Relative growth rate (%): 24.38±3.37%
[5]; Example 3, 0.08 mg/mL, 24 h
  Relative growth rate (%): 10.74±0.01%
[5]; [7]
  relative growth rate: 103.67±1.59 b, c %
[5]; [8]
  relative growth rate: 67.49±5.46 a, b, c %
[5]; [9]
  relative growth rate: 20.76±5.32 a, b, c %
[5]; [10]
  relative growth rate: 9.99±0.38 b %
[5]; [11]
  relative growth rate: 9.01±0.06 b, c %

## surfactin-C13 [HXRZ-A]
[5]; [7]
  relative growth rate: 97.66±3.27 c %
[5]; [8]
  relative growth rate: 97.00±3.13 b, c %
[5]; [9]
  relative growth rate: 34.74±3.25 #, b, c %
[5]; [10]
  relative growth rate: 9.83±0.36 %
[5]; [11]
  relative growth rate: 9.27±0.24 b, c %

## surfactin-C14 [HXRZ-B]
[6]; 1 mg/mL (low-dose)
  Mean adipocyte area (x±SEM, mm^2): 0.00284±0.000267 mm^2
  Mean adipocyte density (x±SEM, n/mm^2): 418.7156±85.9688 n/mm^2
[6]; [12]
  Mean wet adipose tissue weight (x±SEM, unit: g): 0.326 ± 0.106 g
  Mean wet adipose tissue weight/body weight percentage (x±SEM, %): 0.76±0.21%
[6]; 5 mg/mL (medium-dose)
  Mean adipocyte area (x±SEM, mm^2): 0.003554±0.00047 mm^2
  Mean adipocyte density (x±SEM, n/mm^2): 313.2046±85.5687 n/mm^2
[6]; [13]
  Mean wet adipose tissue weight (x±SEM, unit: g): 0.225 ± 0.039 g
  Mean wet adipose tissue weight/body weight percentage (x±SEM, %): 0.56±0.08 %
[6]; 10 mg/mL, four administrations
  Mean wet adipose tissue weight/body weight percentage (x±SEM, %): 0.58±0.07 %
  Mean adipocyte area (x±SEM, mm^2): 0.003177±0.000284 mm^2
  Mean adipocyte density (x±SEM, n/mm^2): 340.3195±31.7463 n/mm^2
[6]; [14]
  Mean wet adipose tissue weight (x±SEM, unit: g): 0.232 ± 0.032 g
[5]; [7]
  relative growth rate: 89.75±7.04 #, c %
[5]; [8]
  relative growth rate: 46.22±4.26 #, a %
[5]; [9]
  relative growth rate: 14.74±0.48 #, a %
[5]; [10]
  relative growth rate: 9.02±0.37 #, c %
[5]; [11]
  relative growth rate: 8.11±0.24 #, a, c %

## surfactin-C15 [HXRZ-C]
[6]; 1 mg/mL (low-dose)
  Mean adipocyte area (x±SEM, mm^2): 0.003222±0.000161 mm^2
  Mean adipocyte density (x±SEM, n/mm^2): 355.3684±57.4571 n/mm^2
[6]; [12]
  Mean wet adipose tissue weight (x±SEM, unit: g): 0.198 ± 0.030 g
  Mean wet adipose tissue weight/body weight percentage (x±SEM, %): 0.51±0.08 %
[6]; 5 mg/mL (medium-dose)
  Mean adipocyte area (x±SEM, mm^2): 0.003297±0.000274 mm^2
  Mean adipocyte density (x±SEM, n/mm^2): 328.9026±63.1322 n/mm^2
[6]; [13]
  Mean wet adipose tissue weight (x±SEM, unit: g): 0.209 ± 0.021 g
  Mean wet adipose tissue weight/body weight percentage (x±SEM, %): 0.53±0.05 %
[6]; 10 mg/mL, four administrations
  Mean wet adipose tissue weight/body weight percentage (x±SEM, %): 0.48±0.02 %
  Mean adipocyte area (x±SEM, mm^2): 0.004632±0.000253 mm^2
  Mean adipocyte density (x±SEM, n/mm^2): 251.3400±31.0087 n/mm^2
[6]; [14]
  Mean wet adipose tissue weight (x±SEM, unit: g): 0.188 ± 0.011 g
[5]; [7]
  relative growth rate: 76.06±3.24 #, a, b %
[5]; [8]
  relative growth rate: 43.53±3.35 #, a %
[5]; [9]
  relative growth rate: 17.61±1.76 #, a %
[5]; [10]
  relative growth rate: 10.29±0.38 b %
[5]; [11]
  relative growth rate: 10.31±0.48 *,#,a,b %
[5]; Example 8, 3T3-F442A, 24 h
  IC50 against adipocytes relative to HXRZ-A: approximately half that of HXRZ-A
